What was measured:
HSV-1, strain E-377 [1] = assay: Orofacial HSV-1 infection in SKH-1 mice: virus titers of orofacial swabs (CPE microtiter assay on rabbit kidney cells); type: in vivo; details: for mean virus titer ± standard deviation, Day 4 am: Day 4, am (before treatments); for mean virus titer ± standard deviation, Day 4 pm: Day 4, pm (after treatments); for mean virus titer ± standard deviation, Day 5 am: Day 5, am (before treatments); for mean virus titer ± standard deviation, Day 5 pm: Day 5, pm (after treatments); for mean virus titer ± standard deviation, Day 6 am: Day 6, am (before treatments); for mean virus titer ± standard deviation, Day 6 pm: Day 6, pm (after treatments); for Mean Peak Titer Score ± SD: orofacial swabs; for #Virus Positive/#Inoculated / Titer-Day AUC: orofacial swabs days 2-8 and 10
Source text: (§1) To determine the effect of treatment on cutaneous viral replication, severity of lesions is scored from days 1-21 and swabs of the snout area are taken on days 2-8 and 10. […] All drug studies are placebo or vehicle controlled.
(§2) During the post-challenge phase, animals were examined daily and lesions scored for severity and samples taken for quantitation of orofacial HSV replication.
To determine the effect of treatment on HSV-1 replication on the orofacial area, swabs of the area were obtained on days 2 through 8 and 10 post-viral challenge. On treatment days, swabs were obtained at least 3 hours following the final treatment. Swabs were placed in tubes containing 2.0 ml of media, vortexed, and frozen at −70° C. until titrated for HSV. […] Wells were seeded with 10^4 cells per well and inoculated in triplicate 24 h later. The plates were read under a microscope five days after viral inoculation and the presence/absence of viral CPE in each well noted. A TCID50 value was calculated using Reed-Muench Methodology.
To determine the effect of treatment on HSV-1 replication from the lesions on the orofacial area, swabs of the area were obtained at least 3 hours after treatment on days when mice are treated. […] Samples were taken before treatments and after treatments.
(§3) Mortality rates were analyzed by Fisher's exact test and mean day of death using Mann-Whitney U rank sum test. Infection rates, peak lesion scores, peak virus titers, areas under the curve for virus titer-day and lesion score-day between control and treated animals will be compared using the Mann-Whitney U Rank Sum Test. A P-value of 0.05 or less will be considered significant.
In addition, the immediate post treatment effects on lesion derived virus titers was analyzed using the mixed linear model with a P-value of 0.05 or less considered as significant. This difference in virus recovered from animals before and after treatments for all treatment days was used to calculate significance.

HSV-1, strain E-377 [2] = assay: Orofacial HSV-1 infection in SKH-1 mice: mortality and facial lesion scores; type: in vivo; details: for Mortality Number: dead/total, topical 3 times daily Days 4-6, 20 min intervals, acyclovir 3 times daily for 5 days from 24 h after inoculation; for #With Lesions/#Inoculated: facial lesions, days 1-21; for Mean Peak Lesion Score ± SD: lesion score scale 0.0-5.0
Experimental: In this model, mice are anesthetized with a ketamine/xylazine mixture and implanted with an electronic microchip for individual identification. […] This procedure is performed carefully to prevent bleeding. […] Following this procedure, animals are returned to their cages and observed until recovery.
as §1, §2
Female SKH-1 mice (Charles River Laboratories, Raleigh, N.C.) were assigned randomly to groups. Each efficacy group contained 10 animals. Animals were anesthetized with ketamine-xylazine, implanted with an identification microchip, and has the orofacial area abraded using a Dremmel tool with an engraving bit.
To determine the effect of treatment on the development and severity of lesions, severity of lesions were graded on a 0.0 to 5.0 scale in 0.5 increments, according to the scale below. The presence or absence of lesions and severity of lesions was recorded daily beginning day 1 through day 21 post-challenge. Animals were observed daily for signs of systemic viral disease.
as §3, with “Test.” for “Test. A P-value of 0.05 or less will be considered significant.”

[3] = same regimens as Mortality Number

Molecule	mean virus titer ± standard deviation, Day 4 am (HSV-1, strain E-377 [1])	mean virus titer ± standard deviation, Day 4 pm (HSV-1, strain E-377 [1]) [TCID50]	mean virus titer ± standard deviation, Day 5 am (HSV-1, strain E-377 [1]) [TCID50]	mean virus titer ± standard deviation, Day 5 pm (HSV-1, strain E-377 [1]) [TCID50]	mean virus titer ± standard deviation, Day 6 am (HSV-1, strain E-377 [1]) [TCID50]	mean virus titer ± standard deviation, Day 6 pm (HSV-1, strain E-377 [1]) [TCID50]	Mean Peak Titer Score ± SD (HSV-1, strain E-377 [1])	#Virus Positive/#Inoculated (HSV-1, strain E-377 [1])	Mortality Number (HSV-1, strain E-377 [2])	#With Lesions/#Inoculated (HSV-1, strain E-377 [2])	Mean Peak Lesion Score ± SD (HSV-1, strain E-377 [2])	Mortality Percent (HSV-1, strain E-377 [2]; [3]) [%]	Titer-Day AUC (HSV-1, strain E-377 [1])	Lesion-Day AUC (HSV-1, strain E-377 [2]; lesion score scale 0.0-5.0, days 1-21)	MDD (Mean Day of Death) (HSV-1, strain E-377 [2]; [3])
Nc1nc2c(ncn2COCCO)c(=O)[nH]1 [5% Acyclovir, Acyclovir, reference compound]	0.2 ± 0.8^ TCID50	0.0 ± 0.0	0.0 ± 0.0	0.0 ± 0.0	0.0 ± 0.0	0.0 ± 0.0	0.6 ± 0.1	3/10	0/10	0/10	0.0 ± 0.0	0	–	–	–
Glycolic acid [Compound 2]	4.2 ± 1.3^ TCID50	4.2 ± 1.6	5.5 ± 0.4	5.1 ± 0.6	5.2 ± 0.6	4.4 ± 0.5	5.3 ± 0.5	10/10	–	–	–	–	33.3	–	–
Ethyl alcohol [Compound 1]	5.1 ± 1.0^ TCID50	5.1 ± 1.5	5.7 ± 0.4	5.6 ± 0.6	4.9 ± 0.7	4.0 ± 0.8	6.0 ± 0.2	10/10	8/10	10/10	3.0 ± 0.0↑	80	32.2	41.1↑	7.9
